Assay type in all cases: functional
In assay [1] the test system is Staphylococcus aureus. The assay is described as follows: Antibacterial activity against methicillin-resistant Staphylococcus aureus N315 assessed as inhibition of bacterial growth measured after 24 hrs incubation.
Assay [2] concerns Staphylococcus aureus. Description: Antibacterial activity against Staphylococcus aureus assessed as inhibition of bacterial growth measured after 24 hrs incubation.
Assay [3] relates to Staphylococcus aureus. Description: Antibacterial activity against Staphylococcus aureus ATCC 25923 assessed as inhibition of bacterial growth measured after 24 hrs incubation.
For assay [4], the system named is Staphylococcus aureus. The assay is described as follows: Antibacterial activity against Staphylococcus aureus ATCC 29213 assessed as inhibition of bacterial growth measured after 24 hrs incubation.
The subject of another assay is Enterococcus faecalis. The assay is described as follows: Antibacterial activity against Enterococcus faecalis assessed as inhibition of bacterial growth measured after 24 hrs incubation.
The subject of a further assay is Klebsiella pneumoniae. Description: Antibacterial activity against Klebsiella pneumonia assessed as inhibition of bacterial growth measured after 24 hrs incubation.
For assay [5], the system named is Escherichia coli. The assay is described as follows: Antibacterial activity against Escherichia coli assessed as inhibition of bacterial growth measured after 24 hrs incubation.
Assay [6] relates to Escherichia coli. Description: Antibacterial activity against Escherichia coli ATCC 25922 assessed as inhibition of bacterial growth measured after 24 hrs incubation.
For assay [7], the system named is Pseudomonas aeruginosa. The assay is described as follows: Antibacterial activity against Pseudomonas aeruginosa assessed as inhibition of bacterial growth measured after 24 hrs incubation.
Assay [8] relates to Pseudomonas aeruginosa. Description: Antibacterial activity against Pseudomonas aeruginosa ATCC 27853 assessed as inhibition of bacterial growth measured after 24 hrs incubation.
The next assay has as its system Acinetobacter baumannii. The assay is described as follows: Antibacterial activity against Acinetobacter baumannii assessed as inhibition of bacterial growth measured after 24 hrs incubation.
Assay [9] deals with Escherichia coli. Description: Potency index, ratio of norfloxacin MIC to test compound MIC for antibacterial activity against Escherichia coli assessed as inhibition of bacterial growth measured after 24 hrs incubation.
Assay [10] concerns Escherichia coli. Description: Potency index, ratio of norfloxacin MIC to test compound MIC for antibacterial activity against Escherichia coli ATCC 25922 assessed as inhibition of bacterial growth measured after 24 hrs incubation.

Values after ≈ are worked out from the molar mass of the structure shown.

The values below come from ChEMBL document CHEMBL5512655, “Discovery of indolylacryloyl-derived oxacins as novel potential broad-spectrum antibacterial candidates” (Eur J Med Chem, 2024).

The MIC is the least concentration at which growth counts as inhibited. For the molecule `CCCCn1cc(/C=C(\C#N)C(=O)N2CCN(c3cc4c(cc3F)c(=O)c(C(=O)O)cn4CC)CC2)c2ccccc21`, the minimum inhibitory concentration (MIC) was determined as 2 µg/mL (≈ 3.51 µM) in the assay with Staphylococcus aureus [1]; 2 µg/mL (≈ 3.51 µM) in the assay with Staphylococcus aureus [2]; 4 µg/mL (≈ 7.02 µM) with Staphylococcus aureus [3]; 1 µg/mL (≈ 1.76 µM) with Staphylococcus aureus [4]; 2 µg/mL (≈ 3.51 µM) with Enterococcus faecalis; 0.5 µg/mL (≈ 0.878 µM) in the assay with Klebsiella pneumoniae. The MIC in the assay with Escherichia coli [5] is 4 µg/mL (≈ 7.02 µM); in the assay on Escherichia coli [6] it was 2 µg/mL (≈ 3.51 µM); in the assay with Pseudomonas aeruginosa [7] it was 1 µg/mL (≈ 1.76 µM); in the assay on Pseudomonas aeruginosa [8] it was 1 µg/mL (≈ 1.76 µM); in the assay with Acinetobacter baumannii, 2 µg/mL (≈ 3.51 µM).

Consider `C=CCn1cc(C(=O)O)c(=O)c2cc(F)c(N3CCN(C(=O)/C(C#N)=C/c4cn(CC(=O)OCC)c5ccccc45)CC3)cc21`, for which the MIC in the assay on Staphylococcus aureus [1] is 128 µg/mL (≈ 209 µM); with Staphylococcus aureus [2], 16 µg/mL (≈ 26.2 µM); with Staphylococcus aureus [3], 64 µg/mL (≈ 105 µM); with Staphylococcus aureus [4] it was 16 µg/mL (≈ 26.2 µM); in the assay on Enterococcus faecalis, 0.25 µg/mL (≈ 0.409 µM); in the assay on Klebsiella pneumoniae, 1 µg/mL (≈ 1.63 µM). Moreover, the MIC came to 1 µg/mL (≈ 1.63 µM) in the assay on Escherichia coli [5]; 32 µg/mL (≈ 52.3 µM) with Escherichia coli [6]; 256 µg/mL (≈ 419 µM) in the assay on Pseudomonas aeruginosa [7]; 4 µg/mL (≈ 6.54 µM) in the assay with Pseudomonas aeruginosa [8]; 8 µg/mL (≈ 13.1 µM) with Acinetobacter baumannii.

Regarding `CCn1cc(C(=O)O)c(=O)c2cc(F)c(N3CCN(C(=O)/C(C#N)=C/c4cn(Cc5ccccc5Cl)c5ccccc45)CC3)cc21`, the MIC is 32 µg/mL (≈ 50.1 µM) in the assay with Staphylococcus aureus [1]; 256 µg/mL (≈ 401 µM) in the assay on Staphylococcus aureus [2]; 32 µg/mL (≈ 50.1 µM) in the assay with Staphylococcus aureus [3]; 64 µg/mL (≈ 100 µM) in the assay with Staphylococcus aureus [4]; 16 µg/mL (≈ 25.1 µM) in the assay with Enterococcus faecalis; 32 µg/mL (≈ 50.1 µM) with Klebsiella pneumoniae. Moreover, the MIC in the assay on Escherichia coli [5] turned out to be 1 µg/mL (≈ 1.57 µM); in the assay on Escherichia coli [6], 0.25 µg/mL (≈ 0.392 µM); with Pseudomonas aeruginosa [7], 16 µg/mL (≈ 25.1 µM); in the assay on Pseudomonas aeruginosa [8] it was 1 µg/mL (≈ 1.57 µM); in the assay on Acinetobacter baumannii, 8 µg/mL (≈ 12.5 µM).

As to `CCCCCCCCn1cc(C(=O)O)c(=O)c2cc(F)c(N3CCN(C(=O)/C(C#N)=C/c4cn(CC(=O)OCC)c5ccccc45)CC3)cc21`, the minimal inhibitory concentration (MIC) with Staphylococcus aureus [1] is 8 µg/mL (≈ 11.7 µM); with Staphylococcus aureus [2], 32 µg/mL (≈ 46.8 µM); in the assay with Staphylococcus aureus [3], 4 µg/mL (≈ 5.85 µM); in the assay on Staphylococcus aureus [4] it was 256 µg/mL (≈ 374 µM); in the assay with Enterococcus faecalis, 1 µg/mL (≈ 1.46 µM); in the assay on Klebsiella pneumoniae, 4 µg/mL (≈ 5.85 µM). Moreover, the MIC in the assay with Escherichia coli [5] is 0.25 µg/mL (≈ 0.366 µM); with Escherichia coli [6], 0.5 µg/mL (≈ 0.731 µM); in the assay with Pseudomonas aeruginosa [7], 16 µg/mL (≈ 23.4 µM); in the assay with Pseudomonas aeruginosa [8], 16 µg/mL (≈ 23.4 µM); in the assay with Acinetobacter baumannii it was 2 µg/mL (≈ 2.92 µM).

Take `CCCCn1cc(C(=O)O)c(=O)c2cc(F)c(N3CCN(C(=O)/C(C#N)=C/c4cn(CC(=O)OCC)c5ccccc45)CC3)cc21`: the MIC in the assay with Staphylococcus aureus [1] is 2 µg/mL (≈ 3.19 µM); in the assay on Staphylococcus aureus [2], 1 µg/mL (≈ 1.59 µM); with Staphylococcus aureus [3] it was 4 µg/mL (≈ 6.37 µM); in the assay on Staphylococcus aureus [4], 1 µg/mL (≈ 1.59 µM); in the assay on Enterococcus faecalis, 1 µg/mL (≈ 1.59 µM); with Klebsiella pneumoniae it was 16 µg/mL (≈ 25.5 µM). Besides, the MIC with Escherichia coli [5] came out at 0.25 µg/mL (≈ 0.398 µM); with Escherichia coli [6] it was 0.25 µg/mL (≈ 0.398 µM); in the assay on Pseudomonas aeruginosa [7], 4 µg/mL (≈ 6.37 µM); in the assay with Pseudomonas aeruginosa [8] it was 1 µg/mL (≈ 1.59 µM); in the assay with Acinetobacter baumannii, 0.5 µg/mL (≈ 0.797 µM). For the same molecule, the figures for the Ratio in the assay on Escherichia coli [9] and in the assay with Escherichia coli [10] were 8 and 2, respectively.

For the molecule `CCCCCCn1cc(C(=O)O)c(=O)c2cc(F)c(N3CCN(C(=O)/C(C#N)=C/c4cn(CC(=O)OCC)c5ccccc45)CC3)cc21`, the MIC in the assay on Staphylococcus aureus [1] was found to be 128 µg/mL (≈ 195 µM); in the assay with Staphylococcus aureus [2], 64 µg/mL (≈ 97.6 µM); in the assay with Staphylococcus aureus [3] it was 4 µg/mL (≈ 6.1 µM); in the assay with Staphylococcus aureus [4], 8 µg/mL (≈ 12.2 µM); in the assay with Enterococcus faecalis, 0.25 µg/mL (≈ 0.381 µM); in the assay on Klebsiella pneumoniae, 16 µg/mL (≈ 24.4 µM). Moreover, the MIC was 32 µg/mL (≈ 48.8 µM) with Escherichia coli [5]; 0.5 µg/mL (≈ 0.763 µM) with Escherichia coli [6]; 1 µg/mL (≈ 1.53 µM) in the assay with Pseudomonas aeruginosa [7]; 16 µg/mL (≈ 24.4 µM) in the assay with Pseudomonas aeruginosa [8]; 8 µg/mL (≈ 12.2 µM) in the assay on Acinetobacter baumannii.

Regarding `CCn1cc(C(=O)O)c(=O)c2cc(F)c(N3CCN(C(=O)/C(C#N)=C/c4c[nH]c5ccccc45)CC3)cc21`, the minimum inhibitory concentration (MIC) with Staphylococcus aureus [1] is 0.5 µg/mL (≈ 0.974 µM); in the assay with Staphylococcus aureus [2], 4 µg/mL (≈ 7.79 µM); in the assay with Staphylococcus aureus [3], 1 µg/mL (≈ 1.95 µM); in the assay on Staphylococcus aureus [4] it was 0.5 µg/mL (≈ 0.974 µM); in the assay with Enterococcus faecalis it was 0.25 µg/mL (≈ 0.487 µM); in the assay on Klebsiella pneumoniae, 0.25 µg/mL (≈ 0.487 µM). For the same molecule, the MIC with Escherichia coli [5] amounted to 0.5 µg/mL (≈ 0.974 µM); in the assay on Escherichia coli [6], 0.25 µg/mL (≈ 0.487 µM); in the assay with Pseudomonas aeruginosa [7], 1 µg/mL (≈ 1.95 µM); in the assay with Pseudomonas aeruginosa [8], 0.5 µg/mL (≈ 0.974 µM); with Acinetobacter baumannii, 0.25 µg/mL (≈ 0.487 µM).

With `CCn1cc(C(=O)O)c(=O)c2cc(F)c(N3CCN(C(=O)/C(C#N)=C/c4cn(Cc5ccc(Cl)cc5)c5ccccc45)CC3)cc21`, the MIC with Staphylococcus aureus [1] was 32 µg/mL (≈ 50.1 µM); in the assay on Staphylococcus aureus [2], 64 µg/mL (≈ 100 µM); in the assay on Staphylococcus aureus [3] it was 16 µg/mL (≈ 25.1 µM); in the assay on Staphylococcus aureus [4], 16 µg/mL (≈ 25.1 µM); in the assay on Enterococcus faecalis, 32 µg/mL (≈ 50.1 µM); in the assay with Klebsiella pneumoniae, 0.5 µg/mL (≈ 0.784 µM). The minimum inhibitory concentration (MIC) in the assay with Escherichia coli [5] was 1 µg/mL (≈ 1.57 µM); with Escherichia coli [6], 4 µg/mL (≈ 6.27 µM); with Pseudomonas aeruginosa [7], 0.5 µg/mL (≈ 0.784 µM); in the assay with Pseudomonas aeruginosa [8], 1 µg/mL (≈ 1.57 µM); with Acinetobacter baumannii, 0.5 µg/mL (≈ 0.784 µM).

Take `CCOC(=O)Cn1cc(/C=C(\C#N)C(=O)N2CCN(c3cc4c(cc3F)c(=O)c(C(=O)O)cn4Cc3ccccc3)CC2)c2ccccc21`: the minimum inhibitory concentration (MIC) with Staphylococcus aureus [1] was found to be 256 µg/mL (≈ 387 µM); in the assay on Staphylococcus aureus [2], 256 µg/mL (≈ 387 µM); in the assay on Staphylococcus aureus [3], 256 µg/mL (≈ 387 µM); in the assay with Staphylococcus aureus [4], 256 µg/mL (≈ 387 µM); in the assay on Enterococcus faecalis, 0.25 µg/mL (≈ 0.378 µM); in the assay with Klebsiella pneumoniae it was 2 µg/mL (≈ 3.02 µM). Moreover, the minimum inhibitory concentration (MIC) amounted to 8 µg/mL (≈ 12.1 µM) in the assay on Escherichia coli [5]; 16 µg/mL (≈ 24.2 µM) in the assay on Escherichia coli [6]; 256 µg/mL (≈ 387 µM) with Pseudomonas aeruginosa [7]; 4 µg/mL (≈ 6.05 µM) in the assay on Pseudomonas aeruginosa [8]; 4 µg/mL (≈ 6.05 µM) in the assay with Acinetobacter baumannii.

For `C=CCn1cc(/C=C(\C#N)C(=O)N2CCN(c3cc4c(cc3F)c(=O)c(C(=O)O)cn4CC)CC2)c2ccccc21`, the minimum inhibitory concentration (MIC) in the assay on Staphylococcus aureus [1] came to 2 µg/mL (≈ 3.61 µM); with Staphylococcus aureus [2], 1 µg/mL (≈ 1.81 µM); with Staphylococcus aureus [3], 1 µg/mL (≈ 1.81 µM); in the assay on Staphylococcus aureus [4], 16 µg/mL (≈ 28.9 µM); with Enterococcus faecalis, 8 µg/mL (≈ 14.5 µM); in the assay with Klebsiella pneumoniae, 1 µg/mL (≈ 1.81 µM). Moreover, the minimal inhibitory concentration (MIC) in the assay on Escherichia coli [5] was determined as 8 µg/mL (≈ 14.5 µM); in the assay with Escherichia coli [6], 1 µg/mL (≈ 1.81 µM); in the assay on Pseudomonas aeruginosa [7], 1 µg/mL (≈ 1.81 µM); in the assay with Pseudomonas aeruginosa [8], 0.25 µg/mL (≈ 0.452 µM); in the assay on Acinetobacter baumannii, 2 µg/mL (≈ 3.61 µM).
